Legend:
BCL2 F104I = BCL2 F104I (Homo sapiens, UniProt P10415, F104I); assay: TR-FRET competitive binding assay, BCL2 F104I; conditions: Ki determined from IC50, read-out: TR_FRET EKI_Bcl2 F104I
How it was run: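 Ki derived from IC50 (11-point dilution, 520/495 nm emission ratio) for displacing a fluorescein-labelled PUMA peptide (2 or 20 nM). Target was 0.5 nM E. coli-expressed Halo-tagged BCL2 (1-207) or BCLXL (2-196), terbium-labelled on Halo. Incubation 2 h at 23°C in pH 7.5 Hepes with 150 mM NaCl and 5% DMSO.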

KMS-12-PE Bcl-2 WT = assay: In vitro cytotoxicity CellTiter-Glo 48 h, KMS-12-PE Bcl-2 WT; assay type: cell-based; conditions: C50 = concentration needed to reach 50% of the cellular viability
How it was run: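 KMS-12-PE myeloma cells were lentivirally transduced with wild-type or G101V-mutant Bcl-2 and sorted by TagRFP. They were exposed to compounds as 11-point dose responses for 48 h at 37 °C, 5% CO2. Viability was read by CellTiter-Glo ATP luminescence, and C50 was the concentration giving 50% viability.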

KMS12PE Bcl2 G101V = assay: In vitro cytotoxicity CellTiterGlo 72 h, KMS12PE Bcl2 G101V; assay type: cell-based; conditions: Homo sapiens, KMS-12-PE, read-out: C50 nM, KMS12PE Bcl2 G101V
Description: (§1) KMS-12-PE (ACC 606) were purchased from the Leibniz-Institute DSMZ (Braunschweig, Germany) and were grown at 37° C. in a humidified atmosphere with 5% CO2 in media recommended by the suppliers. Lentiviral particles containing Bcl-2 wild type (also named “Bcl2 WT”), Bcl-2 mutated on G101V (also named “Bcl2 G101V”), Bcl-2 mutated on D103Y (also named “Bcl2 D103Y”), Bcl-2 mutated on D103V (also named “Bcl2 D103V”), Bcl-2 mutated on D103E (also named “Bcl2 D103E”), Bcl-2 mutated on F104I (also named “Bcl2 F104I”), Bcl-2 mutated on F104L (also named “Bcl2 F104L”), Bcl-2 mutated on D111A (also named “Bcl2 D111A”), Bcl-2 mutated on A113G (also named “Bcl2 A113G”), Bcl-2 mutated on R129L (also named “Bcl2 R129L”), Bcl-2 mutated on V156D (also named “Bcl2 V156D”) were cloned into pcLV-CMV-DEST-IRES-TagRFP. Lentiviral particles (1×10^6) were mixed with Polybrene at 8 μg/ml and transduced by spinoculation for 1 h at 32° C. and incubated overnight. After 8 days, TagRFP positive-cells were sorted by FACS. BCL2 expression was monitored by immunoblotting using anti-Flag and anti-BCL2 antibodies. Cells were seeded into 96-wells plates and treated with 1:3.16 serial dilution of compounds (9 different concentrations). Cell viability was assessed using CellTiterGlo reagent following treatment for 72 h. Results were normalized to the viability of cells without compounds (control wells). The C50 values were calculated using nonlinear regression algorithms in XCell software.

KMS12PE Bcl2 R129L = assay: In vitro cytotoxicity CellTiterGlo 72 h, KMS12PE Bcl2 R129L; assay type: cell-based; conditions: Homo sapiens, KMS-12-PE, read-out: C50 nM, KMS12PE Bcl2 R129L
Description: as §1

SMILES	Ki (BCL2 F104I)	IC50 (KMS-12-PE Bcl-2 WT; Homo sapiens, KMS-12-PE)	IC50 (KMS12PE Bcl2 G101V)	IC50 (KMS12PE Bcl2 R129L)	IC50 (KMS-12-PE Bcl-2 WT)
Cc1c(N(C(=O)c2cc(-c3cc4c(cc3C(=O)N3Cc5ccccc5C[C@H]3C)CN(C(=O)Cc3ccc(OCCN5CCOCC5)cc3)CC4)n(C)c2C)c2ccc(O)cc2)cc(C#N)n1C [Example 21, N-(5-cyano-1,2-dimethyl-1H-pyrrol-3-yl)-N-(4-hydroxyphenyl)-1,2-dimethyl-5-{7-[(3R)-3-methyl-1,2,3,4-tetrahydroisoquinoline-2-carbonyl]-2-(2-{4-[2-(morpholin-4-yl)ethoxy]phenyl}acetyl)-1,2,3,4-tetrahydroisoquinolin-6-yl}-1H-pyrrole-3-carboxamide]	0.29 nM	0.0057 µM	9.36 nM	1.51 nM	
Cc1c(N(C(=O)c2cc(-c3cc4c(cc3C(=O)N3Cc5ccccc5C[C@H]3C)CN(C(=O)Cc3ccc(OCCC5CCOCC5)cc3)CC4)n(C)c2C)c2ccc(O)cc2)cc(C#N)n1C [Example 27, N-(5-cyano-1,2-dimethyl-1H-pyrrol-3-yl)-N-(4-hydroxyphenyl)-1,2-dimethyl-5-{7-[(3R)-3-methyl-1,2,3,4-tetrahydroisoquinoline-2-carbonyl]-2-(2-{4-[2-(oxan-4-yl)ethoxy]phenyl}acetyl)-1,2,3,4-tetrahydroisoquinolin-6-yl}-1H-pyrrole-3-carboxamide]	2.36 nM	0.0037 µM	7.19 nM	0.99 nM	
Cc1c(N(C(=O)c2cc(-c3cc4c(cc3C(=O)N3Cc5ccccc5C[C@H]3CN3CCCCC3)CN(C(=O)Cc3ccc(OCCN5CCOCC5)cc3F)CC4)n(C)c2C)c2ccc(O)cc2)cc(C#N)n1C [Example 43, N-(5-cyano-1,2-dimethylpyrrol-3-yl)-5-[2-(2-{2-fluoro-4-[2-(morpholin-4-yl)ethoxy]phenyl}acetyl)-7-{[(3S)-3-(piperidin-1-ylmethyl)-3,4-dihydro-1H-isoquinolin-2-yl]carbonyl}-3,4-dihydro-1H-isoquinolin-6-yl]-N-(4-hydroxyphenyl)-1,2-dimethylpyrrole-3-carboxamide]	0.16 nM		10 nM	0.99 nM	0.0048 µM
Cc1c(N(C(=O)c2cc(-c3cc4c(cc3C(=O)N3Cc5ccccc5C[C@H]3C)CN(C(=O)Cc3ccc(N5CCN6CCOC[C@@H]6C5)cc3F)CC4)n(C)c2C)c2ccc(O)cc2)cc(C#N)n1C [Example 45, 5-[2-(2-{4-[(9aS)-octahydropyrazino[2,1-c][1,4]oxazin-8-yl]-2-fluorophenyl}acetyl)-7-[(3R)-3-methyl-1,2,3,4-tetrahydroisoquinoline-2-carbonyl]-1,2,3,4-tetrahydroisoquinolin-6-yl]-N-(5-cyano-1,2-dimethyl-1H-pyrrol-3-yl)-N-(4-hydroxyphenyl)-1,2-dimethyl-1H-pyrrole-3-carboxamide]	1.65 nM	0.005 µM	18.2 nM	1.89 nM	
Cc1c(N(C(=O)c2cc(-c3cc4c(cc3C(=O)N3Cc5ccccc5C[C@H]3C)CN(C(=O)Cc3ccc(CCN5CCC(F)(F)CC5)cc3)CC4)n(C)c2C)c2ccc(O)cc2)cc(C#N)n1C [Example 51, N-(5-cyano-1,2-dimethylpyrrol-3-yl)-5-[2-(2-{4-[2-(4,4-difluoropiperidin-1-yl)ethyl]phenyl}acetyl)-7-{[(3R)-3-methyl-3,4-dihydro-1H-isoquinolin-2-yl]carbonyl}-3,4-dihydro-1H-isoquinolin-6-yl]-N-(4-hydroxyphenyl)-1,2-dimethylpyrrole-3-carboxamide]	4.91 nM	0.0068 µM	20.2 nM	3.22 nM	
COC[C@@H]1Cc2ccccc2CN1C(=O)c1cc2c(cc1-c1cc(C(=O)N(c3ccc(O)cc3)c3cc(C#N)n(C)c3C)c(C)n1C)CCN(C(=O)Cc1ccc(OCCC3CCOCC3)cc1F)C2 [Example 52, N-(5-cyano-1,2-dimethylpyrrol-3-yl)-5-[2-(2-{2-fluoro-4-[2-(oxan-4-yl)ethoxy]phenyl}acetyl)-7-{[(3S)-3-(methoxymethyl)-3,4-dihydro-1H-isoquinolin-2-yl]carbonyl}-3,4-dihydro-1H-isoquinolin-6-yl]-N-(4-hydroxyphenyl)-1,2-dimethylpyrrole-3-carboxamide]	0.77 nM	0.0034 µM	10.6 nM	1.89 nM	
Cc1c(N(C(=O)c2cc(-c3cc4c(cc3C(=O)N3Cc5ccccc5C[C@H]3C)CN(C(=O)Cc3ccc(OCCN5CCC(F)CC5)cc3)CC4)n(C)c2C)c2ccc(O)cc2)cc(C#N)n1C [Example 53, N-(5-cyano-1,2-dimethyl-1H-pyrrol-3-yl)-5-[2-(2-{4-[2-(4-fluoropiperidin-1-yl)ethoxy]phenyl}acetyl)-7-[(3R)-3-methyl-1,2,3,4-tetrahydroisoquinoline-2-carbonyl]-1,2,3,4-tetrahydroisoquinolin-6-yl]-N-(4-hydroxyphenyl)-1,2-dimethyl-1H-pyrrole-3-carboxamide]	0.35 nM	0.0072 µM	16.3 nM	2.38 nM	
Cc1c(N(C(=O)c2cc(-c3cc4c(cc3C(=O)N3Cc5ccccc5C[C@H]3C)CN(C(=O)Cc3ccc(OCCN5CCSCC5)cc3)CC4)n(C)c2C)c2ccc(O)cc2)cc(C#N)n1C [Example 55, N-(5-cyano-1,2-dimethyl-1H-pyrrol-3-yl)-N-(4-hydroxyphenyl)-1,2-dimethyl-5-{7-[(3R)-3-methyl-1,2,3,4-tetrahydroisoquinoline-2-carbonyl]-2-(2-{4-[2-(thiomorpholin-4-yl)ethoxy]phenyl}acetyl)-1,2,3,4-tetrahydroisoquinolin-6-yl}-1H-pyrrole-3-carboxamide]	0.3 nM	0.0062 µM	13.7 nM	2.46 nM	
Cc1c(N(C(=O)c2cc(-c3cc4c(cc3C(=O)N3Cc5ccccc5C[C@H]3CN3CCCCC3)CN(C(=O)Cc3ccc(OCCC5CCOCC5)cc3)CC4)n(C)c2C)c2ccc(O)cc2)cc(C#N)n1C [Example 66, N-(5-cyano-1,2-dimethylpyrrol-3-yl)-N-(4-hydroxyphenyl)-1,2-dimethyl-5-[2-(2-{4-[2-(oxan-4-yl)ethoxy]phenyl}acetyl)-7-{[(3S)-3-(piperidin-1-ylmethyl)-3,4-dihydro-1H-isoquinolin-2-yl]carbonyl}-3,4-dihydro-1H-isoquinolin-6-yl]pyrrole-3-carboxamide]	0.47 nM	0.006 µM	10.1 nM	1.32 nM	
Cc1c(C(=O)N(c2ccc(O)cc2)c2cc(C#N)n(C(F)F)c2C)cc(-c2cc3c(cc2C(=O)N2Cc4ccccc4C[C@H]2CN2CCCCC2)CN(C(=O)Cc2ccc(OCCN4CCOCC4)cc2)CC3)n1C [Example 77]	0.47 nM	0.0084 µM	28.2 nM	2.81 nM	
Cc1c(C(=O)N(c2ccc(O)cc2)c2cc(C#N)n(C(F)F)c2C)cc(-c2cc3c(cc2C(=O)N2Cc4ccccc4C[C@H]2CN2CCCCC2)CN(C(=O)Cc2ccc(OCCN4CCOCC4)cc2F)CC3)n1C [Example 78, N-[5-cyano-1-(difluoromethyl)-2-methylpyrrol-3-yl]-5-[2-(2-{2-fluoro-4-[2-(morpholin-4-yl)ethoxy]phenyl}acetyl)-7-{[(3S)-3-(piperidin-1-ylmethyl)-3,4-dihydro-1H-isoquinolin-2-yl]carbonyl}-3,4-dihydro-1H-isoquinolin-6-yl]-N-(4-hydroxyphenyl)-1,2-dimethylpyrrole-3-carboxamide]	0.43 nM	0.005 µM	8.35 nM	0.9 nM	
Cc1c(N(C(=O)c2cc(-c3cc4c(cc3C(=O)N3Cc5ccccc5C[C@H]3CN3CCC[C@H](C)C3)CN(C(=O)Cc3ccc(OCCN5CCOCC5)cc3F)CC4)n(C)c2C)c2ccc(O)cc2)cc(C#N)n1C [Example 107]	0.34 nM	0.0034 µM	9.13 nM	1.12 nM	
